Tests used:
FGFR3 = molecular target: T1, FGFR3 (Homo sapiens, UniProt P22607); assay: FGFR3 in vitro kinase inhibitory activity assay; format: biochemical; conditions: read-out: FGFR3 IC50(μM) or % I
T1 construct: purchased Upstate
Method: (§1) FGFR3, VEGFR2 and PDGFR in vitro Kinase Inhibitory Activity Assays
(§2) Enzymes (from Upstate), prepared at 2× final concentration, were incubated with test compounds, biotinylated Flt3 substrate (biotin-VASSDNEYFYVDF) (Cell Signalling Technology Inc.) and ATP in the appropriate assay buffer (Table 1). The reaction was allowed to proceed for 3 hours (FGFR3), 1 hour (VEGFR2, PDGFR-beta) at room temperature on a plate shaker at 700 rpm before being stopped with 35 mM EDTA, pH 8 (FGFR3, VEGFR2) or 55 mM EDTA, pH 8 (PDGFR-beta). 5× detection mix/50 mM HEPES pH 7.5, 0.1% BSA, 11.34 nM Eu-anti-pY (PY20) (PerkinElmer) 74 nM SA-XL665 (Cisbio) for FGFR3, 50 mM HEPES, pH 7.5, 0.1% BSA, 11.34 nM Eu-anti-pY (PY20), 187.5 nM SA-XL665 for VEGFR2 and 50 mM HEPES, pH 7.5, 0.1% BSA, 11.34 nM Eu-anti-pY (PT66) (PerkinElmer), 375 nM SA-XL665 (Cisbio) for PDGFR-beta) was then added to each well and the plate sealed and incubated at room temperature for one hour on a plate shaker at 700 rpm. The plate was then read on a Packard Fusion plate reader or a BMG Pherastar both in TRF mode.

VEGFR2 = molecular target: T2, VEGFR2 (Homo sapiens, UniProt P35968); assay: VEGFR2 in vitro kinase inhibitory activity assay; format: biochemical; conditions: read-out: VEGFR2 IC50(μM) or % I
T2 construct: purchased Upstate
T2 sequence (P35968 20-1356): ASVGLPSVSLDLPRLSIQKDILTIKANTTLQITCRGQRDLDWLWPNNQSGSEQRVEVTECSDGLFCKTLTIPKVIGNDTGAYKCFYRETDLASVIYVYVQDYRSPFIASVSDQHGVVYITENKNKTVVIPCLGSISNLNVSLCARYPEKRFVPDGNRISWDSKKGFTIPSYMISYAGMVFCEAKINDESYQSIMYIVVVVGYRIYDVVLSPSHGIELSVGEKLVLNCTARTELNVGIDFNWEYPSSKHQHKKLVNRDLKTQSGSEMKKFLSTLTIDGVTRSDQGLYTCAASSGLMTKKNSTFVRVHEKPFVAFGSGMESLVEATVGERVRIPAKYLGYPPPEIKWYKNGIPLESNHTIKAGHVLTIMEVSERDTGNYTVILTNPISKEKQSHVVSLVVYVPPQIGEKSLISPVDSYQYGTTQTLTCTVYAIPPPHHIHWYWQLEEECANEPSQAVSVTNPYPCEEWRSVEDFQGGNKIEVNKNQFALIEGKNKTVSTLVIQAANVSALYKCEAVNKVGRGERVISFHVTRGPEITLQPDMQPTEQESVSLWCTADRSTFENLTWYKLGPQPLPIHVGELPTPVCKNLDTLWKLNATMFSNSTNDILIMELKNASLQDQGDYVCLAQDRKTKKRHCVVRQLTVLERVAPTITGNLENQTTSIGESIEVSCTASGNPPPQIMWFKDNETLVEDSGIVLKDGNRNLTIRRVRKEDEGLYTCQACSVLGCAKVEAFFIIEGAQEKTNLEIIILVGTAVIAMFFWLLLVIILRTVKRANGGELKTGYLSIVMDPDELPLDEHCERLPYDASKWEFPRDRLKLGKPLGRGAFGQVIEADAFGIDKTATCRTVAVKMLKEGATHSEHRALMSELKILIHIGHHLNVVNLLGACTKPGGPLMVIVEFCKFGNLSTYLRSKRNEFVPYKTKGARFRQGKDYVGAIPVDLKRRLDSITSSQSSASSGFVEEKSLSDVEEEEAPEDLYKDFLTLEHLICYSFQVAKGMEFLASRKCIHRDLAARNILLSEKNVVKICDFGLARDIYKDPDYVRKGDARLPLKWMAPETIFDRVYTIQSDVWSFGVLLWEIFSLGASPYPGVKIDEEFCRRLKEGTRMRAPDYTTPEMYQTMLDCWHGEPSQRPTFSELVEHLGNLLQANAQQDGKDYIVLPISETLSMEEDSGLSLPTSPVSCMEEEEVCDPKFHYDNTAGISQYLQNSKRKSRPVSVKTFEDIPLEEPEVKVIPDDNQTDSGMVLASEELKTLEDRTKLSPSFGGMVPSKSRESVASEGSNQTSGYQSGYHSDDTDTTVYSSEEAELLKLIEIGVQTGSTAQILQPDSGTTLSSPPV
Method: as §1, §2
Kinase Assay buffers were:
B: 50 mM HEPES pH 7.5, 6 mM MnCl2, 1 mM DTT, 0.01% TritonX-100, 0.1 mM Sodium orthovanadate

[1] = tested on: parental wild-type Ba/F3 cells; assay: Ba/F3 (WT) cell proliferation assay (Alamar Blue); format: cell-based, murine; conditions: read-out: BaF3 WT prolif; for IC50: BaF3, 72 hours, with mouse IL-3
Method: (§3) Ba/F3-TEL-FGFR3 & Ba/F3 (WT) Cell Proliferation Assays
(§4) Stably transfected Ba/F3-TEL-FGFR3 cells were plated out into black 96-well tissue culture plates with clear bottoms in RPMI medium containing 10% FBS and 0.25 mg/ml G418 at a density of 5×10^3 cells/well (200 μl per well). The parental wild-type Ba/F3 cells (DSMZ no.: ACC 300) were plated out into black 96-well tissue culture plates with clear bottoms in RPMI medium containing 10% FBS and 2 ng/ml mouse IL-3 (R&D Systems) at a density of 2.5×10^3 cells/well (200 μl per well). Plates were placed in an incubator overnight before adding the compounds the following day. Dilutions of compounds were made in DMSO starting at 10 mM and were diluted into the wells to give a final DMSO concentration of 0.1% in assay. Compounds were left on the cells for 72 hours before the plates were removed from the incubator and 20 μl of Alamar Blue™ (Biosource) was added to each well. Plates were placed in the incubator for 4-6 hours before reading plates at 535 nm (excitation)/590 nm (emission) on a Fusion plate reader (Packard). Where inhibition is high an IC50 can be determined.

Ba/F3-TEL-FGFR3 cells = molecular target: T3, Ba/F3-TEL-FGFR3 cells (Homo sapiens, UniProt P22607); assay: Ba/F3-TEL-FGFR3 cell proliferation assay (Alamar Blue); format: cell-based, murine; conditions: 72 hours; read-out: BaF3-TEL-FGFR3 prolif
T3 construct: fused on or other part: TEL (ETV6) N-terminal oligomerising part fused to the FGFR3 kinase part; P41212 (Transcription factor ETV6)
T3 sequence (P22607 whole entry, change not shown, the tested form may be a part): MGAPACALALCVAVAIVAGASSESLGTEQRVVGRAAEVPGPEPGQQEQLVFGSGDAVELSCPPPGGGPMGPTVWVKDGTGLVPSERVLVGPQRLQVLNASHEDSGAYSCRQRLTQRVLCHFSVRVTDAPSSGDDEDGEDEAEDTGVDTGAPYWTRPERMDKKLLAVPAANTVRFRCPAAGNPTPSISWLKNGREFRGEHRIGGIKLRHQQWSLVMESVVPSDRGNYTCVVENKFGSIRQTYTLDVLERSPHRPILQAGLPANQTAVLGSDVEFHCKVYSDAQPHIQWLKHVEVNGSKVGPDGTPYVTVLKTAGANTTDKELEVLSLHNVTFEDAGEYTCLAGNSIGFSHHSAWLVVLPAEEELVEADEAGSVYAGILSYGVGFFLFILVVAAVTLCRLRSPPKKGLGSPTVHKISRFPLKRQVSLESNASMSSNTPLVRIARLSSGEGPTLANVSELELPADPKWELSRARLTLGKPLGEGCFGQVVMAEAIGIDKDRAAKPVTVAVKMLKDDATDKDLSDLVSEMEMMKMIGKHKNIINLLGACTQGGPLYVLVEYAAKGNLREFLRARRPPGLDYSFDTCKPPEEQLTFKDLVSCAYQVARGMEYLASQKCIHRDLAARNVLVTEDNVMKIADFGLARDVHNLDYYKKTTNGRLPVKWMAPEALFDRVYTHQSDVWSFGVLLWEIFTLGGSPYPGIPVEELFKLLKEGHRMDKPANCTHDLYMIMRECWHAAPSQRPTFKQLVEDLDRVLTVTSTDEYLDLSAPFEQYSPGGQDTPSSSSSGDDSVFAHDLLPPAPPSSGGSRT
Method: as §3, §4

[2] = tested on: human prostate cancer PC3 cells; assay: EB1 cellular assay (Eb1 Comet assay, microtubule disruption); format: cell-based; conditions: PC-3, lowest active concentration: Eb1 foci absent in at least 50% of treated PC3 cells, 1 hour, read-out: Eb1 LAC
Method: The Eb1 Comet assay relies on the detection of the Eb1 protein at the plus end of polymerizing microtubules (Mimori-Kiyosue, 2000) using indirect immunofluorescence. Disruption of microtubule dynamics through de-polymerization or stabilization results in a de-localization of Eb1 from the growing microtubule ends and this is visualized by the disappearance of Eb1 containing cytoplasmic foci.
Briefly, human prostate cancer PC3 cells obtained from the American Type Culture Collection were grown in 96-well plates (Greiner, cat. no. 655090) in HAM's F12 medium as recommended by the provider (ATCC). The cells were treated for 1 hour at 37° C. with compounds dissolved in DMSO (0.6% final DMSO concentration). The culture medium was then removed by aspiration and the cells were fixed by adding cold methanol (−20° C.). After a 15 minutes incubation at −20° C., the cells were washed twice with DPBS (Gibco) containing 0.5% Triton X-100. Mouse Eb1 antibody (BD Transduction Laboratories, cat. no. 610534) was added to the cells (1/250 dilution in DPBS containing 1% BSA) and incubated overnight at room temperature. The antibody was subsequently removed and the cells washed twice with DPBS, 0.5% Triton X-100. Secondary goat anti-mouse antibody conjugated to Alexa 488 fluorescent dye (Molecular Probes) was added at a 1/500 dilution in DPBS, 1% BSA and incubated for 1 hour at 37° C. The cells were washed twice with DPBS, 0.5% Triton X-100 and then DPBS containing 0.5% Triton X-100 and 1/5000 Hoechst 33342 (Molecular Probes) was added. Microscopy based Eb1 foci visualization was carried out using an IN Cell Analyser 1000 (Amersham Biosciences) using a 20× objective. Compound dependent microtubule disruption was visually determined by the disappearance in Eb1 foci. The lowest active concentration (LAC) was determined as the concentration where Eb1 foci were absent in at least 50% of the treated cells. Herein the effects of test compounds are expressed as pLAC (the negative log value of the LAC-value)

T1 sequence (P22607 23-806): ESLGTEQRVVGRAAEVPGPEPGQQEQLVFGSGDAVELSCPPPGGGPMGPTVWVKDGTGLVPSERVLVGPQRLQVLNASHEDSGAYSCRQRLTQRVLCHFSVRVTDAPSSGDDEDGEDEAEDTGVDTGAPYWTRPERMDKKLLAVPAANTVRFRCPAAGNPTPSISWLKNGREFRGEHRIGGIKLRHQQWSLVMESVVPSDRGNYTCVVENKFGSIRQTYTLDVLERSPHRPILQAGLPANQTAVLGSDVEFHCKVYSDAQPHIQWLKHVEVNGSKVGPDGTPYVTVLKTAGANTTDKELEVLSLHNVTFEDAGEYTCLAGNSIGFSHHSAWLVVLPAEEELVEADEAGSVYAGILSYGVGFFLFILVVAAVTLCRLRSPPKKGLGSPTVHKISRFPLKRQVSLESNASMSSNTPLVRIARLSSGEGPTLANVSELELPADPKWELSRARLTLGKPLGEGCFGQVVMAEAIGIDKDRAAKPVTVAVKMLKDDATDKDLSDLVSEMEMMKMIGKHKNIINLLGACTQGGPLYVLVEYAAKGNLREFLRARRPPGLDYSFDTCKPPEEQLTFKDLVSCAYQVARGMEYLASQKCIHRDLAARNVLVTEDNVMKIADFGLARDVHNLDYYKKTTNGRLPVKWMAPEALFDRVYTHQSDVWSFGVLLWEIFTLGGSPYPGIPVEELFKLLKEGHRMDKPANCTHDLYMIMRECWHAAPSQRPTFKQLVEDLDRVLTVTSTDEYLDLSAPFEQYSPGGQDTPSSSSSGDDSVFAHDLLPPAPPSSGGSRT

| IC50 (FGFR3) [µM] | inhibition at 10 µM (VEGFR2; 1 h, % I at 10 μM) [%] | GI50 (Ba/F3-TEL-FGFR3 cells) [nM] | IC50 (VEGFR2) [µM] | inhibition at 3 µM (VEGFR2; 1 h, % I at 3 μM) [%] | SMILES | IC50 [1] [nM] | minimal effective concentration [2] [µM] | inhibition at 10 µM ([1]; Mus musculus, BaF3, 72 h) [%] | inhibition at 3 µM ([1]; Mus musculus, BaF3, 72 h) [%] | inhibition at 1 µM ([1]; Mus musculus, BaF3, 72 h, % at 1.00 μM) [%] |
| --- | --- | --- | --- | --- | --- | --- | --- | --- | --- | --- |
| 0.092 | 53 | 3160 |  |  | CC(C)Oc1cc(NC(=O)NCC(F)(F)F)cc(-c2cnc3cc(-c4nccc(C(C)C)n4)ccn23)c1 [Compound F-29, 1-{3-Isopropoxy-5-[7-(4-isopropyl-pyrimidin-2-yl)-imidazo[1,2-a]pyridin-3-yl]-phenyl}-3-(2,2,2-trifluoroethyl)-urea] | 3980 | > 10 |  |  |  |
| 0.0144 |  | 170 | 1.14 |  | CC(C)Oc1cc(NC(=O)NCC(F)(F)F)cc(-c2cnc3cc(-c4ncccn4)ccn23)c1 [Compound F-2, 1-[3-Isopropoxy-5-(7-pyrimidin-2-yl-imidazo[1,2-a]pyridin-3-yl)-phenyl]-3-(2,2,2-trifluoro-ethyl)-urea] |  | > 10 | 33 |  |  |
| 0.0016 |  | 100 | 0.077 |  | Cc1cn(-c2ccn3c(-c4cc(NC(=O)NCC(F)(F)F)cc(OC(C)C)c4)cnc3c2)cn1 [Compound F-28, 1-{3-Isopropoxy-5-[7-(4-methylimidazol-1-yl)-imidazo[1,2-a]pyridin-3-yl]-phenyl}-3-(2,2,2-trifluoro-ethyl)-urea] |  | 5 | 73 |  |  |
| 0.0154 |  | 220 | 0.635 |  | Cc1nnc(-c2ccn3c(-c4cc(NC(=O)NCC(F)(F)F)cc(OC(C)C)c4)cnc3c2)o1 [Compound F-5, 1-{3-Isopropoxy-5-[7-(5-methyl-[1,3,4]oxadiazol-2-yl)-imidazo[1,2-a]pyridin-3-yl]-phenyl}-3-(2,2,2-trifluoro-ethyl)-urea] |  | > 10 | 59 |  |  |
| 0.042 |  | 1580 | 1.2 |  | CC(C)Oc1cc(NC(=O)NCC(F)(F)F)cc(-c2cnc3cc(-c4nccc(C(C)(C)CO)n4)ccn23)c1 [Compound F-27, 1-(3-{7-[4-(2-Hydroxy-1,1-dimethylethyl)-pyrimidin-2-yl]-imidazo[1,2-a]pyridin-3-yl}-5-isopropoxy-phenyl)-3-(2,2,2-trifluoro-ethyl)-urea] |  | > 10 |  | 50 |  |
| 0.0072 |  | 120 | 1.35 |  | CC(C)Oc1cc(NC(=O)NCC(F)(F)F)cc(-c2cnc3cc(-c4ncc(F)c(N)n4)ccn23)c1 [Compound F-1, 1-{3-[7-(4-Amino-5-fluoro-pyrimidin-2-yl)-imidazo[1,2-a]pyridin-3-yl]-5-isopropoxy-phenyl}-3-(2,2,2-trifluoro-ethyl)-urea] |  | > 10 | 42 |  |  |
| 0.0087 |  | 330 | 0.48 |  | Cc1nc(-c2ccn3c(-c4cc(NC(=O)NCC(F)(F)F)cc(OC(C)C)c4)cnc3c2)ccc1F [Compound F-3, 1-{3-[7-(5-Fluoro-6-methyl-pyridin-2-yl)-imidazo[1,2-a]pyridin-3-yl]-5-isopropoxy-phenyl}-3-(2,2,2-trifluoro-ethyl)-urea] | ~8000 | > 10 |  |  |  |
| 0.018 |  | 350 | 0.17 |  | COCc1cc(NC(=O)NCC(F)(F)F)cc(-c2cnc3cc(-c4nnc(C)o4)ccn23)c1 [Compound F-7, 1-{3-Methoxymethyl-5-[7-(5-methyl-[1,3,4]oxadiazol-2-yl)-imidazo[1,2-a]pyridin-3-yl]-phenyl}-3-(2,2,2-trifluoro-ethyl)-urea] |  | 10 | 0 |  |  |
| 0.061 |  | 820 |  | 55 | CC(C)Oc1cc(NC(=O)NCC(F)(F)F)cc(-c2cnc3cc(N4CCC(F)(F)CC4)ccn23)c1 [Compound F-13, 1-{3-[7-(4,4-Difluoro-piperidin-1-yl)-imidazo[1,2-a]pyridin-3-yl]-5-isopropoxy-phenyl}-3-(2,2,2-trifluoro-ethyl)-urea] | 3200 | 5 |  |  |  |
| 0.017 |  | 500 | 0.51 |  | CC(C)Oc1cc(NC(=O)NCC(F)(F)F)cc(-c2cnc3cc(OCCO)ccn23)c1 [Compound F-17, 1-{3-[7-(2-Hydroxy-ethoxy)-imidazo[1,2-a]pyridin-3-yl]-5-isopropoxy-phenyl}-3-(2,2,2-trifluoro-ethyl)-urea] |  | 3 | 0 |  |  |
| 0.00247 |  | 42 | 0.092 |  | CC(C)Oc1cc(NC(=O)NCC(F)(F)F)cc(-c2cnc3cc(-c4nncs4)ccn23)c1.Cl [Compound F-19, 1-[3-Isopropoxy-5-(7-[1,3,4]thiadiazol-2-yl-imidazo[1,2-a]pyridin-3-yl)-phenyl]-3-(2,2,2-trifluoro-ethyl)-urea] |  | 3 |  |  | 0 |
| 0.00096 |  | 9 | 0.029 |  | Cc1nnc(-c2ccn3c(-c4cc(NC(=O)NCC(F)(F)F)cc(OC(C)C)c4)cnc3c2)s1.Cl [Compound F-20, 1-{3-Isopropoxy-5-[7-(5-methyl-[1,3,4]thiadiazol-2-yl)-imidazo[1,2-a]pyridin-3-yl]-phenyl}-3-(2,2,2-trifluoro-ethyl)-urea] |  | 0.1 |  | 0 |  |
| 0.02 |  | 440 | 0.67 |  | CC(C)Oc1cc(NC(=O)NCC(F)(F)F)cc(-c2cnc3cc(OCCCO)ccn23)c1 [Compound F-18, 1-{3-[7-(3-Hydroxy-propoxy)-imidazo[1,2-a]pyridin-3-yl]-5-isopropoxy-phenyl}-3-(2,2,2-trifluoro-ethyl)-urea] |  | 5 | 54 |  |  |

— US8722687B2, “Imidazo [1,2-A]pyridine derivatives as FGFR kinase inhibitors for use in therapy” (Astex Therapeutics Ltd, priority 2009, dated 2014)
